# Marks after values point to notes of the source that are not given here.
# Experiments:
# [1] = tested on: mouse fibrosarcoma Meth A cells; assay: Antitumor effect in mice transplanted with mouse fibrosarcoma Meth A cells; type: in vivo; details: intravenous on days 1, 5, 9, tumor weight day 21, BALB/c mice
# Experimental: The antitumor effect of the phenanthroindolizidine alkaloid compound of the present invention in vivo was studied using mice transplanted with mouse fibrosarcoma Meth A cells. Meth A cells were transplanted subcutaneously in the inguinal region of male 7-week-old BALB/c mice (2.5×10^5 cells/mouse). Subsequently, on days 1, 5, and 9, the compound of the present invention was intravenously administered. To a control group, physiological saline, a solvent, was administered. On day 21 after the cell transplantation, tumor was excised and measured for its weight, and subsequently a tumor growth-inhibition rate IR (%) was obtained by the following formula. Tumor growth-inhibition rate IR (%)=(1−the weight of the tumor in an administration group/the weight of the tumor in a control group)×100
# NFκB = assay: Inhibitory action on the NFκB activity, luciferase assay in SW480/NRE-Luc cells; type: cell-based, human; details: for NFκB inhibitory activity IC50: SW480/NRE-Luc cells, compound 1 h then 50 ng/mL TNFα 4 h, luciferase; for IC50: Homo sapiens, SW480, read-out: NFκB inhibitory activity IC50
# In short: (§1)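 Stable SW480 colon cancer lines carried luciferase driven by a 5× NFκB response element or by the SV40 promoter. Compound was added 1 h before 50 ng/mL TNFα, followed by 4 h culture at 37 °C; luminescence was read and IC50 taken as 50% inhibition of induced luciferase expression.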
# [2] = tested on: human colon cancer HT-29 cells; assay: Inhibitory action on the proliferation of HT-29 cells; type: cell-based; details: 96 hours, TetraColor ONE; for IC50: Homo sapiens, HT-29
# In short: (§2)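 Cells seeded overnight (SW480 2000/well in 10% FBS/RPMI1640; A549, HT-29 1000/well in 10% FBS DMEM or DMEM F12 HAM), then compound-treated at 37 °C, 5% CO2 for 48 h (SW480) or 96 h (A549, HT-29). Viable cells counted by TetraColor ONE; IC50 for 50% proliferation inhibition.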
# [3] = tested on: human colon cancer SW480 cells; assay: Inhibitory action on the proliferation of SW480 cells; type: cell-based; details: 48 hours, TetraColor ONE; for IC50: Homo sapiens, SW480
# In short: as §2
# SV40 promoter = SV40 promoter activity, luciferase assay in SW480/SV40-Luc cells; type: cell-based, human; details: for SV40 promoter inhibitory activity IC50: SW480/SV40-Luc cells, luciferase; for IC50: Homo sapiens, SW480, read-out: SV40 promoter inhibitory activity IC50
# In short: as §1
# [4] = tested on: human non-small cell lung cancer A549 cells; assay: Inhibitory action on the proliferation of A549 cells; type: cell-based; details: 96 hours, TetraColor ONE; for IC50: Homo sapiens, A549
# In short: as §2
# [5] = tested on: mice transplanted with mouse fibrosarcoma Meth A cells; assay: Animal toxicity test; type: in vivo; details: intravenous days 1, 5, 9, observed three weeks
# Experimental: Also, the toxicity of known phenanthroindolizidine alkaloid compounds, namely (12aS,13S)-6,7-dimethoxy-9,10,11,12,12a,13-hexahydro-9a-aza-cyclopenta[b]triphenylene-3,13-diol (known compound 1; refer to WO01/023384) and (12aS,13S)-3,6,7-trimethoxy-9,10,11,12,12a,13-hexahydro-9a-aza-cyclopenta[b]triphenylene-13-ol (known compound 2; refer to Planta Med., 2002, 68: 186-188), was simultaneously studied. To a control group, a physiological saline solution, a solvent, was administered. As a result, as shown in the following Tables 35 and 36, all the mice survived in a group administered with the compound of the present invention.
# Solubility of the salts = assay: Solubility of the salts
# Source text: In in vivo studies, each compound was used in the form of a salt.
# [6] = tested on: human colon cancer HCT116 cells; assay: Antitumor effect in mice transplanted with human colon cancer HCT116 cells; type: in vivo, mouse; details: intraperitoneal days 1-5 and 8-12, tumor weight day 21, BALB/c nude mice
# Source text: The antitumor effect of the phenanthroindolizidine alkaloid compound of the present invention in vivo was studied using mice transplanted with human colon cancer HCT116 cells. HCT116 cells were transplanted subcutaneously in the inguinal region of male 6-week-old BALB/c nude mice (2×10^6 cells/mouse). On days 1 to 5 and on days 8 to 12 after the time at which the estimated tumor volume obtained by ½ab^2 (a and b indicate the major axis and the minor axis of tumor, respectively) reached approximately 100 mm^3 (day 0), the compound of the present invention was administered (intraperitoneal administration). To a control group, a 5% glucose solution, a solvent, was administered. On day 21, tumor was excised and measured for its weight, and subsequently a tumor proliferation-inhibition rate IR (%) was calculated.
# [7] = aqueous solution of 5% glucose, saline or isotonic
SMILES,Tumor growth inhibition rate IR ([1]; total dose 25 mg/kg),Tumor growth inhibition rate IR ([1]; total dose 50 mg/kg),NFκB inhibitory activity IC50 (NFκB),HT-29 proliferation inhibitory action IC50 [2],SW480 proliferation inhibitory action IC50 [3],SV40 promoter inhibitory activity IC50 (SV40 promoter),A549 proliferation inhibitory action IC50 [4],Mortality rate ([5]; total dose 25 mg/kg),Mortality rate ([5]; total dose 50 mg/kg),IC50 (NFκB),IC50 [2],IC50 [3],IC50 (SV40 promoter),IC50 [4],solubility (Solubility of the salts; [7]),Tumor growth inhibition rate IR ([6]; total dose 100 mg/kg),Tumor growth inhibition rate IR ([6]; total dose 200 mg/kg),"solubility (Solubility of the salts; in an aqueous solution of 5% glucose, salt form)",Tumor growth inhibition rate IR ([6]; total dose 50 mg/kg)
"COC(=O)CCC(=O)Oc1ccc2c3c(c4cc(OC)c(OC)cc4c2c1)CN1CCC[C@H]1[C@H]3O.Cl [Compound 16, succinic acid(12aS,13S)-13-hydroxy-6,7-dimethoxy-9,10,11,12,12a,13-hexahydro-9a-aza-cyclopenta[b]triphenylene-3-yl ester methyl ester hydrochloride]",48.8* %,39.1%,0.37 ng/mL,0.17 ng/mL,0.76 ng/mL,>100 ng/mL,0.59 ng/mL,–,–,–,–,–,–,–,–,–,–,–,–
"COC(=O)Oc1ccc2c3c(c4cc(OC)c(OC)cc4c2c1)CN1CCC[C@H]1[C@H]3O.Cl [Compound 17, carbonic acid(12aS,13S)-13-hydroxy-6,7-dimethoxy-9,10,11,12,12a,13-hexahydro-9a-aza-cyclopenta[b]triphenylene-3-yl ester methyl ester hydrochloride]",54.2* %,50.0%,0.83 ng/mL,0.067 ng/mL,0.63 ng/mL,>100 ng/mL,0.53 ng/mL,–,–,–,–,–,–,–,–,–,–,–,–
"COc1cc2c3c(c4ccc(OC(=O)c5ccco5)cc4c2cc1OC)[C@H](O)[C@@H]1CCCN1C3.Cl [Compound 20, furan-2-carboxylic acid(12aS,13S)-13-hydroxy-6,7-dimethoxy-9,10,11,12,12a,13-hexahydro-9a-aza-cyclopenta[b]triphenylene-3-yl ester hydrochloride]",36.7%,53.0* %,0.46 ng/mL,0.76 ng/mL,0.67 ng/mL,>100 ng/mL,0.42 ng/mL,0/5,0/5,–,–,–,–,–,–,–,–,–,–
"COc1cc2c3c(c4cccc(O)c4c2cc1OC)C[C@@H]1CCCN1C3.Cl [Compound 40, (S)-6,7-dimethoxy-9,10,11,12,12a,13-hexahydro-9a-aza-cyclopenta[b]triphenylene-4-ol hydrochloride]",25.8%,45.1* %,–,–,–,–,–,0/5,0/5,2.4 ng/mL,67.9 ng/mL,4 ng/mL,> 1000 ng/mL,3.3 ng/mL,–,–,–,–,–
"COc1cc2c3c(c4cccc(O)c4c2cc1OC)[C@H](O)[C@@H]1CCCN1C3.CS(=O)(=O)O [Compound 43, (12aS,13S)-6,7-dimethoxy-9,10,11,12,12a,13-hexahydro-9a-aza-cyclopenta[b]triphenylene-4,13-diol methanesulfonate]",–,–,–,–,–,–,–,–,–,2.7 ng/mL,100 ng/mL,6.2 ng/mL,> 1000 ng/mL,4.4 ng/mL,11.2 mg/mL,–,–,–,–
"COc1cc2c3c(c4ccc(F)cc4c2cc1OC)C[C@@H]1CCCN1C3.CS(=O)(=O)O [Compound 44, (S)-3-fluoro-6,7-dimethoxy-9,10,11,12,12a,13-hexahydro-9a-aza-cyclopenta[b]triphenylene methanesulfonate]",–,–,–,–,–,–,–,–,–,36.8 ng/mL,12.8 ng/mL,64.9 ng/mL,> 1000 ng/mL,6 ng/mL,10.3 mg/mL,30.7** %,–,–,–
"COc1cc2c3c(c4ccc(OC(C)=O)cc4c2cc1OC)C[C@@H]1CCCN1C3.CS(=O)(=O)O [Compound 45, acetic acid(S)-6,7-dimethoxy-9,10,11,12,12a,13-hexahydro-9a-aza-cyclopenta[b]triphenylene-3-yl ester methanesulfonate]",–,–,0.41 ng/mL,1.5 ng/mL,0.76 ng/mL,>100 ng/mL,0.64 ng/mL,–,–,–,–,–,–,–,–,–,34.7** %,9.7 mg/mL,–
"COC(=O)CCC(=O)Oc1ccc2c3c(c4cc(OC)c(OC)cc4c2c1)CN1CCC[C@H]1C3.CS(=O)(=O)O [Compound 46, succinic acid(S)-6,7-dimethoxy-9,10,11,12,12a,13-hexahydro-9a-aza-cyclopenta[b]triphenylene-3-yl ester methyl ester methanesulfonate]",–,–,0.13 ng/mL,2.1 ng/mL,0.36 ng/mL,>1000 ng/mL,1.2 ng/mL,–,–,–,–,–,–,–,–,–,34.6** %,–,–
"COc1cc2c3c(c4ccc(NC(C)=O)cc4c2cc1OC)C[C@@H]1CCCN1C3.CS(=O)(=O)O [Compound 56, N-((S)-6,7-dimethoxy-9,10,11,12,12a,13-hexahydro-9a-aza-cyclopenta[b]triphenylene-3-yl)-acetamide methanesulfonate]",–,–,–,–,–,–,–,–,–,2.9 ng/mL,2.4 ng/mL,4.8 ng/mL,> 10 ng/mL,2.2 ng/mL,–,68.9** %,–,–,39.1** %

# Source: patent US8569327B2, “Phenanthroindolizidine derivative and NFκB inhibitor containing same as active ingredient” (Kabushiki Kaisha Yakult Honsha, priority 2008, dated 2013)
